The record followed here is patent US11999697B2, “Methods and compositions for inhibition of dihydroorotate dehydrogenase” (OHIO STATE INNOVATION FOUNDATION, priority 2018, dated 2024).

Read-outs that look alike come from different tables or passages of the source.

The test system of one test is OCI-AML3. In words: MTS cell proliferation assay, OCI-AML3. In kind it is cell-based. The following applies: Homo sapiens. The procedure:
(§1) Triplicate wells were set up for each condition.
The assays were carried out in a blinded fashion.
In general terms: Tetrazolium dyes change colour on reduction, which living cells bring about.

A further test has as its system primary human AML cells. Nature of the test: Colony formation (CFU) assay in methocult media. In kind it is cell-based. The following applies: 1 μM, 14 days. On the procedure: Colony formation (CFU) assays in methocult media: CFU assays can detect an increase or decrease in the frequency of the hematopoietic progenitor proliferation and/or changes in differentiation potential in response to stimulatory, inhibitory or toxic agents. For CFU assays with primary AML cells, cells were cultured overnight in media containing IL-3, GM-CSF, SCF, and FLT3L cytokines at 20 ng/ml. 10-25K primary cells were suspended in MethoCult™ Optimum without EPO which is supplemented with SCF, IL-3, G-CSF, GM-CSF along with vehicle, 1 μM Cpd3 or 1 μM brequinar. After 14 days the total number of colonies was counted and the cells were solubilized from the methocult for cytospin assays described below. […] FIGS. 3A-3B show representative data for colony formation for primary human AML cells in the presence of a representative disclosed compound, Cpd3, compared to a reference compound, brequinar, or vehicle treatment using methods as described herein below. Briefly, primary AML cells were treated with vehicle (DMSO), Cpd3 (1 μM) or brequinar sodium (BQR, 1 μM) and plated in methocult media for 14 days. Results are plotted as the total number of colonies per each condition. Lines connecting data from the same patient sample are shown in order to indicate the trend within a particular sample.

Test [1] deals with AML cell lines (MOLM13, MV4-11, OCI-AML3). Nature of the test: Formal synergy analysis (Combenefit, BLISS) with MDM2 inhibitor AMG-232. In kind it is cell-based. The following applies: Cpd3 0-10 μM with AMG-232 0-10 μM. On the procedure:
FIGS. 6D-6F show formal synergy analysis following treatment of different cell-lines (as indicated below) with a representative disclosed compound, Cpd3 (0-10 μM), in the presence or absence of an MDM2 inhibitor, AMG-232 (0-10 μM). The formal synergy analysis was carried out using the Combenefit analysis program (Cambridge Research UK, Cambridge Institute, University of Cambridge, United Kingdom; see also Di Veroli G Y, et al. Bioinformatics. 2016; 32:2866-2868). Combenefit analysis software uses the Loewe, Bliss, and HSA (Highest Single Agent) models to generate surface analyses with statistical significance and global metrics/scores. Data shown for the cell-lines in FIGS. 6D-6F were obtained using the BLISS analysis.

Test [2] has as its system normal T-cells (CD4, CD8). In words: CFSE proliferation assay. It is filed as cell-based, human. Conditions: 0.3 and 1 μM, CD3/CD28 stimulation, 72 hours. The procedure:
CFSE proliferation assays: Peripheral blood mononuclear cells from healthy adults were negatively selected to enrich for CD3, CD4, or CD8 T-cells. Cells were then stained with carboxyfluorescein succinimidyl ester (CSFE) and stimulated with plate bound anti-CD3 and soluble anti-CD28 antibodies. Proliferation was determined by CFSE dilution in the presence of vehicle or Cpd3 (0.3 and 1 μM doses) at 72 hours.
FIGS. 7A-7I show representative cell proliferation data for normal T-cells following treatment with vehicle or a representative disclosed compound, Cpd3 in the presence or absence of CD3/CD28 stimulation using a CSFE proliferation flow cytometry assay as described herein below. Briefly, T-cells were isolated from normal healthy donors, labeled with CSFE, and then either left unstimulated or co-stimulated with CD3/CD28 in the presence of vehicle or Cpd3 (0.3 and 1 μM doses) for 72 hours. Proliferation was determined by CSFE dilution in CD4 and CD8 T-cells. Data shown in FIGS. 7A-7H were obtained from one representative normal donor.

In test [3] the test system is murine AML cells (Tet2-KO/Flt3-ITD, IDH2-R140Q/Flt3-ITD). In words: MTS assay on murine AML bone marrow cells ex vivo. In kind it is cell-based, mice. The following applies: 0-10 μM, 96 hours.
Text: as §1
In particular, the in vivo effects of Cpd3 on the immune repertoire is important in view of previous reports describing DHODH inhibitors as having diverse effects on innate and cellular immune function. FIGS. 9A-9B show representative data for proliferation of murine AML cells in the presence of a representative disclosed compound, Cpd3, compared to a reference compound, brequinar (indicated as “BQR” in the figure). […] Briefly, bone marrow cells were isolated from leukemic Tet2-KO/Flt3-ITD mice (FIG. 9A; N=7) or leukemic IDH2-R140Q/Flt3-ITD mice (FIG. 9B; N=3) were treated ex vivo with Cpd3 or BQR (dose range 0-10 μM). Cell growth was determined at 96 hours relative to the vehicle (DMSO) control using a MTS cell proliferation assay as described herein below.

Test [4] deals with luciferase-expressing MOLM-13 cells. In words: MOLM13 xenograft study, daily dosage regimen. In kind it is in vivo, NCG mice. On the procedure: The effect of a representative disclosed compound, Cpd3, on in vivo tumor growth was assessed in a MOLM13 xenograft study was examined using a daily dosage regimen. Briefly, male NCG (NOD-Prkdc^em26Cd52//2rg^em26Cd22/NjuCrl) mice (N=12 per group) were given an intravenous injection of 1×10^4 luciferase-expressing MOLM-13 cells. As discussed above, this model is believed to be a very aggressive model of tumor growth (vehicle treated mice typically reach early removal criteria by 24-26 days post-engraftment). Briefly, NCG mice were injected with 1×10^4 MOLM13-luciferase cells (N=12 per group) and at 4 days post-engraftment (Day 0) were imaged and enrolled into one of three treatment groups: Vehicle, 25 mg/kg Cpd3 (administered daily) or 50 mg/kg Cpd3 (administered daily). […] The color scale represents the radiance (p/s/cm2/sr), related to the amount of luciferase expression and therefore disease burden. […] Survival data were calculated using Kapler Meyer analysis (vehicle vs. 25 mg/kg dosing with Cpd3 or vehicle vs. 50 mg/kg dosing with Cpd3; each p<0.001). Arrow indicates the start of treatment.

Broadly, the IC50 is the midpoint of a concentration-inhibition curve. In the case of `CCOc1ccc(-c2ccc(-c3cc(C(=O)O)c4cc(F)ccc4n3)cc2)cc1` [Cpd3, 2-(4′-ethoxy-[1,1′-biphenyl]-4-yl)-6-fluoroquinoline-4-carboxylic acid], the IC50 came out at 321 nM in the test with OCI-AML3 (OCI-AML-3, 96 hour, Table 6, read-out: 96 hour IC50 (nM) in OCI-AML-3 cell line) and 610 nM in the test on OCI-AML3 (OCI-AML-3, 96 hours, read-out: IC50 (μM) at 96 hours, OCI-AML3). The “growth in methocult colony forming unit (CFU) assays” value in the test on primary human AML cells is “decreased growth”. Also, the “synergy with MDM2 inhibitor AMG-232” value in test [1] is “synergistic cell killing in AML cell lines”. Besides, in test [2], the T-cell proliferation entry is recorded as “inhibits T-cell proliferation”. In test [3], the “potency on murine leukemic cells ex vivo relative to BQR” value is “a log fold more potent than BQR”. In addition, the “Median survival time” value is listed as 24 days in test [4] (25 mg/kg QD PO) and 27 days in test [4] (50 mg/kg QD PO). In addition, in test [4] (25 or 50 mg/kg administered daily), the “tumor burden (luciferase expression by IVIS imaging)” value is listed as “able to reduce the tumor burden in the mice”.
